From patent US4022895A, “Substituted phenylglycylcephalosporins” (SmithKline Corporation, priority 1975, dated 1977)
In brackets after ≈: the same amount, converted by molar mass. Read-outs that look alike come from different tables or passages of the source.

Columns and labels:
Shig. paradys HH 112 = assay: In vitro antibacterial activity (MIC); type: cell-based; settings: Shig. paradys HH 112, in vitro; read-out: MIC
Description: (§1) The compounds of this invention have antibacterial activity against Gram-positive and Gram-negative organisms. Minimum inhibitory concentrations (MIC's) ranged from 0.4 to >200 μg/ml in in vitro testing.

S.aureus HH 127 = assay: In vitro antibacterial activity (MIC); type: cell-based; settings: Staphylococcus aureus, HH127
Description: as §1

Kleb. pneumo. SK 1200 = assay: In vitro antibacterial activity (MIC); type: cell-based
Description: as §1

E. coli HH 33779 = assay: In vitro antibacterial activity (MIC); type: cell-based; settings: Escherichia coli, HH33779
Description: as §1

S.aureus Villaluz = assay: In vitro antibacterial activity (MIC); type: cell-based; settings: Staphylococcus aureus
Description: as §1

[1] = tested on: Entero. aerog. ATCC 13048; assay: In vitro antibacterial activity (MIC); type: cell-based
Description: as §1

Strep. faecalis HH 34358 = assay: In vitro antibacterial activity (MIC); type: cell-based; settings: Enterococcus faecalis, HH34358; Strep. faecalis HH 34358, in vitro
Description: as §1

S.aureus SK 23390 = assay: In vitro antibacterial activity (MIC); type: cell-based; settings: Staphylococcus aureus, SK23390
Description: as §1

E.coli SK 12140 = assay: In vitro antibacterial activity (MIC); type: cell-based; settings: Escherichia coli, SK12140
Description: as §1

Kleb. pneumo. SK 4200 = assay: In vitro antibacterial activity (MIC); type: cell-based
Description: as §1

E.coli 12140 = assay: In vivo activity (ED50) against E.coli 12140
Proteus morgani 179 = assay: In vitro antibacterial activity (MIC); type: cell-based; settings: Proteus morgani 179, in vitro
Description: as §1

Klebs.pneumo. 4200 = assay: In vivo activity (ED50) against Klebs.pneumo. 4200
[2] = S.aureus HH 127, in vitro, read-out: MIC
[3] = Kleb. pneumo. SK 1200, in vitro, read-out: MIC
[4] = E. coli HH 33779, in vitro, read-out: MIC
[5] = Entero. aerog. ATCC 13048, in vitro, read-out: MIC
[6] = S.aureus SK 23390, in vitro, read-out: MIC
[7] = E.coli SK 12140, in vitro, read-out: MIC
[8] = Kleb. pneumo. SK 4200, in vitro, read-out: MIC
[9] = Escherichia coli, 12140, po, E.coli 12140, p.o.
[10] = Escherichia coli, 12140, sc, E.coli 12140, s.c.
[11] = po, Klebs.pneumo. 4200, p.o., read-out: ED50
[12] = sc, Klebs.pneumo. 4200, s.c., read-out: ED50

SMILES	MIC (S.aureus HH 127; [2])	MIC (Kleb. pneumo. SK 1200; [3])	MIC (E. coli HH 33779; [4])	MIC (S.aureus Villaluz)	MIC [1, 5]	MIC (Strep. faecalis HH 34358)	MIC (S.aureus SK 23390; [6])	MIC (E.coli SK 12140; [7])	MIC (Kleb. pneumo. SK 4200; [8])	ED50 (E.coli 12140; [9])	ED50 (E.coli 12140; [10])	MIC (Proteus morgani 179; read-out: MIC)	ED50 (Klebs.pneumo. 4200; [11])	ED50 (Klebs.pneumo. 4200; [12])	also measured
CC1=C(C(=O)O)N2C(=O)C(NC(=O)C(N)c3ccc(OCC(=O)O)cc3)C2SC1 (racemic) [*08016, 7-[DL-α-amino-α-(4'-carboxymethoxyphenyl)acetamido]-3-desacetoxycephalosporanic acid]	50 µg/mL (≈ 119 µM)	25 µg/mL (≈ 59.3 µM)	50 µg/mL (≈ 119 µM)	> 200 µg/mL	100 µg/mL (≈ 237 µM)	> 200 µg/mL	50 µg/mL (≈ 119 µM)	50 µg/mL (≈ 119 µM)	–	–	–	–	–	–	MIC (Shig. paradys HH 112): 50 µg/mL (≈ 119 µM)
CC1=C(C(=O)O)N2C(=O)C(NC(=O)[C@H](N)c3ccc(OCC(N)=O)cc3)C2SC1 (stereo partly drawn) [Compound No. 00036, 7-[D-α-Amino-α-(4'-carbamylmethoxyphenyl)acetamido]-3-desacetoxycephalosporanic acid]	3.1 µg/mL (≈ 7.37 µM)	25 µg/mL (≈ 59.5 µM)	50 µg/mL (≈ 119 µM)	200 µg/mL (≈ 476 µM)	100 µg/mL (≈ 238 µM)	50 µg/mL (≈ 119 µM)	3.1 µg/mL (≈ 7.37 µM)	25 µg/mL (≈ 59.5 µM)	25 µg/mL (≈ 59.5 µM)	–	–	–	–	–	MIC (Shig. paradys HH 112): 12.5 µg/mL (≈ 29.7 µM)
N[C@@H](C(=O)NC1C(=O)N2C(C(=O)O)=C(CSc3c[nH]nn3)CSC12)c1ccc(OCC(=O)O)cc1 (stereo partly drawn) [Compound No. 03326, 7-[D-α-Amino-α-(4'-carboxymethoxyphenyl)acetamido]-3-(1,2,3-triazol-4-ylthiomethyl)-3-cephem-4-carboxylic acid]	12.5 µg/mL (≈ 24 µM)	3.1 µg/mL (≈ 5.96 µM)	25 µg/mL (≈ 48 µM)	200 µg/mL (≈ 384 µM)	25 µg/mL (≈ 48 µM)	200 µg/mL (≈ 384 µM)	100 µg/mL (≈ 192 µM)	6.3 µg/mL (≈ 12.1 µM)	6.3 µg/mL (≈ 12.1 µM)	25 mg/kg	8.4 mg/kg	200 µg/mL (≈ 384 µM)	17.7 mg/kg	4.6 mg/kg	–
Cc1nnc(SCC2=C(C(=O)O)N3C(=O)C(NC(=O)[C@H](N)c4ccc(SCC(=O)O)cc4)C3SC2)s1 (stereo partly drawn) [Compound No. 03616, 7-[D-α-Amino-α-(4'-carboxymethylthiophenyl)acetamido]-3-(5-methyl-1,3,4-thiadiazol-2-ylthiomethyl)-3-cephem-4-carboxylic acid]	6.3 µg/mL (≈ 11.1 µM)	3.1 µg/mL (≈ 5.46 µM)	12.5 µg/mL (≈ 22 µM)	25 µg/mL (≈ 44 µM)	25 µg/mL (≈ 44 µM)	100 µg/mL (≈ 176 µM)	6.3 µg/mL (≈ 11.1 µM)	6.3 µg/mL (≈ 11.1 µM)	1.6 µg/mL (≈ 2.82 µM)	14.5 mg/kg	6.2 mg/kg	200 µg/mL (≈ 352 µM)	16 mg/kg	11.5 mg/kg	–
Cn1nnnc1SCC1=C(C(=O)O)N2C(=O)C(NC(=O)[C@H](N)c3ccc(OCC(N)=O)cc3)C2SC1 (stereo partly drawn) [Compound No. 32626, 7-[D-α-Amino-α-(4'-carbamylmethoxyphenyl)acetamido]-3-(1-methyl-1,2,3,4-tetrazol-5-ylthiomethyl)-3-cephem-4-carboxylic acid]	–	–	25 µg/mL (≈ 46.8 µM)	50 µg/mL (≈ 93.5 µM)	–	200 µg/mL (≈ 374 µM)	6.3 µg/mL (≈ 11.8 µM)	–	6.3 µg/mL (≈ 11.8 µM)	> 50 mg/kg	8.7 mg/kg	100 µg/mL (≈ 187 µM)	> 50 mg/kg	15.5 mg/kg	MIC (S.aureus HH 127): 12.5 µg/mL (≈ 23.4 µM); MIC (Kleb. pneumo. SK 1200): 12.5 µg/mL (≈ 23.4 µM); MIC [1]: 12.5 µg/mL (≈ 23.4 µM); MIC (E.coli SK 12140): 12.5 µg/mL (≈ 23.4 µM)
Cc1nnc(SCC2=C(C(=O)O)N3C(=O)C(NC(=O)[C@H](N)c4ccc(NCC(=O)O)cc4)C3SC2)s1 (stereo partly drawn) [Compound No. 48536, 7-[D-α-Amino-α-(4'-carboxymethylaminophenyl)acetamido]-3-(5-methyl-1,3,4-thiadiazol-2-ylthiomethyl)-3-cephem-4-carboxylic acid]	12.5 µg/mL (≈ 22.7 µM)	3.1 µg/mL (≈ 5.63 µM)	6.3 µg/mL (≈ 11.4 µM)	100 µg/mL (≈ 182 µM)	12.5 µg/mL (≈ 22.7 µM)	100 µg/mL (≈ 182 µM)	12.5 µg/mL (≈ 22.7 µM)	3.1 µg/mL (≈ 5.63 µM)	1.6 µg/mL (≈ 2.91 µM)	6.4 mg/kg	2 mg/kg	2.5 µg/mL (≈ 4.54 µM)	12.5 mg/kg	7.8 mg/kg	–
Cc1nnc(SCC2=C(C(=O)O)N3C(=O)C(NC(=O)[C@H](N)c4ccc(OCC(=O)O)cc4)C3SC2)s1 (stereo partly drawn) [Compound No. 59216, 7-[D-α-Amino-α-(4'-carboxymethoxyphenyl)acetamido]-3-(5-methyl-1,3,4-thiadiazol-2-ylthiomethyl)-3-cephem-4-carboxylic acid]	6.3 µg/mL (≈ 11.4 µM)	6.3 µg/mL (≈ 11.4 µM)	12.5 µg/mL (≈ 22.7 µM)	100 µg/mL (≈ 181 µM)	12.5 µg/mL (≈ 22.7 µM)	100 µg/mL (≈ 181 µM)	25 µg/mL (≈ 45.3 µM)	6.3 µg/mL (≈ 11.4 µM)	3.1 µg/mL (≈ 5.62 µM)	25 mg/kg	9.5 mg/kg	200 µg/mL (≈ 363 µM)	21.5 mg/kg	4.8 mg/kg	–
Cn1nnnc1SCC1=C(C(=O)O)N2C(=O)C(NC(=O)[C@H](N)c3ccc(SCC(=O)O)cc3)C2SC1 (stereo partly drawn) [Compound No. 70326, 7-[D-α-Amino-α-(4'-carboxymethylthiophenyl)acetamido]-3-(1-methyl-1,2,3,4-tetrazol-5-ylthiomethyl)-3-cephem-4-carboxylic acid]	–	–	–	–	–	–	–	–	–	11 mg/kg	2.2 mg/kg	6.3 µg/mL (≈ 11.4 µM)	4 mg/kg	1.7 mg/kg	ED50 (Klebs.pneumo. 4200; Klebs.pneumo. 4200, p.o.): 3 mg/kg; ED50 (Klebs.pneumo. 4200; Klebs.pneumo. 4200, s.c.): < 3 mg/kg
Cc1nnc(SCC2=C(C(=O)O)N3C(=O)C(NC(=O)[C@H](N)c4ccc(OCC(N)=O)cc4)C3SC2)s1 (stereo partly drawn) [Compound No. 71816, 7-[D-α-Amino-α-(4'-carbamylmethoxyphenyl)acetamido]-3-(5-methyl-1,3,4-thiadiazol-2-ylthiomethyl)-3-cephem-4-carboxylic acid]	–	6.3 µg/mL (≈ 11.4 µM)	–	25 µg/mL (≈ 45.4 µM)	–	25 µg/mL (≈ 45.4 µM)	–	6.3 µg/mL (≈ 11.4 µM)	3.1 µg/mL (≈ 5.63 µM)	12.5 mg/kg	4.5 mg/kg	100 µg/mL (≈ 182 µM)	6.2 mg/kg	7.5 mg/kg	MIC (E. coli HH 33779): 12.5 µg/mL (≈ 22.7 µM); MIC (Proteus morgani 179): 200 µg/mL (≈ 363 µM)
Cc1nnc(SCC2=C(C(=O)O)N3C(=O)C(NC(=O)[C@H](N)c4ccc(NCC(N)=O)cc4)C3SC2)s1 (stereo partly drawn) [Compound No. 72546, 7-[D-α-Amino-α-(4'-carbamylmethylaminophenyl)acetamido]-3-(5-methyl-1,3,4-thiadiazol-2-ylthiomethyl)-3-cephem-4-carboxylic acid]	–	25 µg/mL (≈ 45.5 µM)	50 µg/mL (≈ 91 µM)	50 µg/mL (≈ 91 µM)	50 µg/mL (≈ 91 µM)	50 µg/mL (≈ 91 µM)	–	25 µg/mL (≈ 45.5 µM)	–	–	–	> 200 µg/mL	–	–	MIC (S.aureus HH 127): 12.5 µg/mL (≈ 22.7 µM); MIC (S.aureus SK 23390): 12.5 µg/mL (≈ 22.7 µM); MIC (Kleb. pneumo. SK 4200): 12.5 µg/mL (≈ 22.7 µM)
Cc1nnc(SCC2=C(C(=O)O)N3C(=O)C(NC(=O)[C@H](N)c4ccc(SCC(N)=O)cc4)C3SC2)s1 (stereo partly drawn) [Compound No. 86526, 7-[D-α-Amino-α-(4'-carbamylmethylthiophenyl)acetamido]-3-(5-methyl-1,3,4-thiadiazol-2-ylthiomethyl)-3-cephem-4-carboxylic acid]	6.3 µg/mL (≈ 11.1 µM)	6.3 µg/mL (≈ 11.1 µM)	25 µg/mL (≈ 44.1 µM)	25 µg/mL (≈ 44.1 µM)	100 µg/mL (≈ 176 µM)	50 µg/mL (≈ 88.2 µM)	3.1 µg/mL (≈ 5.47 µM)	25 µg/mL (≈ 44.1 µM)	12.5 µg/mL (≈ 22.1 µM)	42 mg/kg	18 mg/kg	–	10 mg/kg	7.2 mg/kg	–
CC1=C(C(=O)O)N2C(=O)C(NC(=O)[C@H](N)c3ccc(SCC(=O)O)cc3)C2SC1 (stereo partly drawn) [compound 99316, 7-[D-α-Amino-α-(4'-carboxymethylthiophenyl)acetamido]-3-desacetoxycephalosporanic acid]	–	6.3 µg/mL (≈ 14.4 µM)	50 µg/mL (≈ 114 µM)	100 µg/mL (≈ 229 µM)	50 µg/mL (≈ 114 µM)	> 200 µg/mL	–	–	–	42 mg/kg	25 mg/kg	> 200 µg/mL	15.5 mg/kg	–	MIC (S.aureus HH 127): 12.5 µg/mL (≈ 28.6 µM); MIC (S.aureus SK 23390): 12.5 µg/mL (≈ 28.6 µM); MIC (Kleb. pneumo. SK 4200): 12.5 µg/mL (≈ 28.6 µM); MIC (E.coli SK 12140): 12.5 µg/mL (≈ 28.6 µM)
